Earlier results, collected in US20120178771A1, “Oral Pharmaceutical Compositions of Buprenorphine and Method of Use” (priority 2008, published 2012).

Experiments:
[1] = human, in vivo
[2] = orally administered, versus placebo; pain assessed 0.5 to 6 hours

Compound	dose range required to control pain in about 90% of subjects [1]	analgesia over the 6 hours, differences between the groups [2]
COc1ccc2c3c1O[C@H]1C(=O)CC[C@@]4(O)[C@@H](C2)N(C)CC[C@]314 [oxycodone]	4 fold	–
CN1CC[C@]23c4c5ccc(O)c4O[C@H]2[C@@H](O)C=C[C@H]3[C@H]1C5 [morphine]	8 fold	–
CC(=O)Nc1ccc(O)cc1 [acetaminophen (paracetamol), acetaminophen]	–	no significant differences between the groups in analgesia
